Measurements as given in a melting point compilation (Tetko et al.; mined from patent text by program, amines drawn as free bases though some values may be those of a salt).

Row | melting point [°C] | SMILES
1 | 202 to 204 | CCOCc1nc2c(N)nc3cc(-c4cccnc4)ccc3c2n1CC(C)(C)OCCS(C)(=O)=O
2 | 179 to 180 | Cc1oc(-c2ccco2)nc1/C=C/c1ccc(/C=C/C=C/C=O)cc1
3 | 196 to 205 | CCCCC(=O)c1c(C(C)(C)C)cc(C=[N+]([O-])C(C)(C)C)cc1C(C)(C)C
4 | 228 to 229 | COC(=O)c1cc(OC)c(Cc2c(N)nc(N)nc2Cl)c(OC)c1
5 | > 300 | O=c1[nH]c(=Cc2ccc(OCc3ccccc3)cn2)c(=O)[nH]c1=Cc1ccc([N+](=O)[O-])cc1
6 | 214 to 217 | CCOC(=O)c1cn2c3c(c(F)c(F)cc3c1=O)OCC2CI (centres undefined)
7 | 165 to 169 | CC1CC(=O)C=C(N)C1 (centres undefined)
8 | 91 to 93 | CCC(C)Nc1nc(-c2cc(OC)c(OC)c(OC)c2)nc2sc(C#N)c(C)c12 (centres undefined)
9 | 236 to 238 | OC1CCCCC1n1cnc2cc(Cl)c(Cl)cc21 (centres undefined)
10 | 108 to 110 | CCOC(=O)Nc1nc(C(=NOC)C(=O)OCC)ns1
11 | 193 to 194 | CCOC(=O)N1CCN(c2ccc(C3=NNC(=O)CC3C)cc2F)CC1 (centres undefined)
12 | 68 | O=C(Cc1ccc2nc(CCCOc3cccc(CN4CCCC4)c3)[nH]c2c1)N1CCCC1
13 | 73 to 76 | COC(=O)C(=COCF)c1ccccc1CBr
14 | 231 to 232 | O=C(O)CCCCOc1ccccc1C1(c2ccccc2)NC(=O)NC1=O (centres undefined)
15 | 120 to 122 | CC(CCc1ccccc1)NC(CO)C(O)c1ccc(S(C)(=O)=O)cc1 (centres undefined)
16 | 111 to 113 | CC(=O)NCCCCC(NC(C)=O)C(C)=O (centres undefined)
17 | 105 to 108 | CC(C)(COc1ccccc1C1NC(C(=O)O)CS1)CO[N+](=O)[O-] (centres undefined)
18 | 140 to 142 | O=[N+]([O-])c1ccc(S(=O)(=O)CCO)cc1O
19 | 63.5 to 65 | CC(C)(N)CCOc1ccc(Cl)nn1
20 | 157 to 158 | CC(C)c1cccc(C(C)C)c1NC(=O)C1c2ccccc2COc2ccc(CO)cc21 (centres undefined)

Row | melting point [°C] | SMILES
21 | 209 to 210 | Fc1ccc2nc(S)oc2c1F
22 | 112 | Cc1cc(-n2cccn2)c2cccc(OCc3c(Cl)ccc(S(=O)(=O)N4CCC[C@H]4C(=O)NCC4CCN(CCCO)CC4)c3Cl)c2n1
23 | 158 to 160 | COc1ccc2c(n1)C1(CO2)C(=O)N(Cc2ccc(C(F)(F)F)o2)c2ccc(F)cc21 (centres undefined)
24 | 108 to 109 | Cc1nc(-c2cn(Cc3ccccc3)nn2)sc1C(=O)NCc1ccccc1
25 | 49 to 50 | COc1ccc2c(c1)C=C(C=O)CO2
26 | 161 to 162 | COc1ccc2c(c1)CCC1C2C(O)CC2(C)C(O)CCC12 (centres undefined)
27 | 173 to 175 | CN(C)C=Cc1cc(Cl)c([N+](=O)[O-])cc1Cl
28 | 189 to 190 | CC(=O)Nc1ccc2c(c1)CCC(CC#N)C2=O (centres undefined)
29 | 96 to 98 | O=C(Cc1ccc(Cc2ccc(F)cc2)o1)C(=O)c1ccc[nH]1
30 | 174 to 175 | Cc1noc(-c2ccc(F)cc2)c1-c1ccc(S(N)(=O)=O)cc1
31 | 182 to 183 | COc1ccc(C2Sc3c(ccc4ccccc34)N(CCN(C)C)C(=O)C2OC(=O)c2ccc(OC)c(OC)c2)cc1 (centres undefined)
32 | 117 to 118 | CCOC(=O)Cc1c(-c2ccccc2)n[nH]c1-c1ccccc1
33 | 161 to 162 | CCn1nc(-c2ccc(Oc3nc4cccnc4n3C)cc2)c2nccnc21
34 | 198 to 199 | O=C1Nc2ccccc2N2CCN(c3ccccc3)CCN12
35 | > 250 | O=C(O)/C=C/c1ccc(-c2nc3c(=O)n(CC4CC4)c(=O)n(CC4CC4)c3[nH]2)cc1
36 | 124 to 128 | Cc1ccc(Cl)c(N)c1C(N)=O
37 | 160 | CC(CNc1nc(Cl)ncc1Cl)NS(C)(=O)=O (centres undefined)
38 | 123 to 127 | Cc1ccc(S(=O)(=O)ON=C2CC(c3ccccc3)c3ccccc32)cc1 (centres undefined)
39 | 135 to 138 | CC1(C)Oc2ccc(C#N)cc2[C@@H](NC(=O)Nc2cccc(CC(=O)O)c2)[C@@H]1O
40 | 266 to 267 | CCCCCOc1ccc2cc(CC[C@@](C)(N)COP(=O)(O)O)ccc2c1

Row | melting point [°C] | SMILES
41 | 169 | C=C[C@@H](C[C@H](O)[C@H](CC1CCCCC1)NC(=O)[C@H](Cc1c[nH]cn1)NC(=O)[C@@H](CC(=O)N1CCC(C(=O)O)CC1)Cc1ccccc1)C(C)C
42 | 120 | CCOC(=O)C1=C(C(=O)OCC)N(c2ccccc2)C(c2ccccc2)N(c2ccccc2)C1 (centres undefined)
43 | 201 to 203 | COc1ccc(-c2ccnc3c(C(=O)c4cccs4)cnn23)cc1NC(=O)c1ccccc1
44 | 154 to 156 | O=C(N[C@H](Cc1ccccc1)C(=O)O)OCc1cc2cc(-c3ccccc3)ccc2o1
45 | 145 to 146 | COc1ccc(CSc2nnc(-c3ccc4ncsc4c3)o2)cc1C(F)(F)F
46 | 226 | CC(C)(C)OC(=O)Nc1cccc(Cn2nc(C(=O)O)c3c2-c2ccc(OCc4cncnc4)cc2CC3)c1
47 | 152 to 154 | Cn1nc(-c2cc(C(C)(C)C)c(O)c(C(C)(C)C)c2)c2cccnc21
48 | 144 to 146 | Clc1ccc(CSC(CCc2ccccc2)Cn2ccnc2)cc1Cl (centres undefined)
49 | 144 | CCCCCCCNC(=O)Nc1ccccc1C(=O)Nc1cccnc1
50 | 124 | Cc1ccc(S(=O)(=O)N2C[C@H]3C[C@@H]2CN3Cc2ccccc2)cc1
51 | 126 to 127 | Cc1oc(Cl)cc1C(=O)O
52 | 256 to 258 | CC(C)(C)c1cc(-c2nn(C(=O)c3ccc(Cl)cc3)c3ncccc23)cc(C(C)(C)C)c1O
53 | 78 | C=CCOc1ccccc1N(CC1CO1)S(C)(=O)=O (centres undefined)
54 | 228 to 230 | CN1CCN(Cc2nnc3n2CC(=O)N(C)c2ccc(Cl)cc2-3)CC1
55 | 69 to 70 | CCCCCCCCCCOc1ccc(Br)cc1C12CC3CC(CC(C3)C1)C2
56 | 223 to 226 | CC(=O)Oc1ccc(-n2c3c(c(C(C)=O)c2-c2ccccc2)-c2ccccc2CC3)cc1C(=O)O
57 | 73 to 74 | CN(CCOc1ccc(N)cc1)CCc1ccc(N)cc1
58 | 166 to 169 | CCCCCCCCCc1cc2ccc(C(=O)O)cc2[nH]1
59 | 182 to 184 | O=C(O)C(CCN1C(=O)c2ccccc2C1=O)Oc1ccc(-c2ccc(-c3c(Cc4ccccc4)oc4ccccc34)cc2)cc1 (centres undefined)

The remaining lines, values behind:

Row | SMILES | melting point [°C]
60 | O=C(O)C(Cc1ccccc1)C(=O)NC(CS)Cc1ccccc1 (centres undefined) | 65 to 70
61 | COc1ccc(C(=O)Nc2nnn[nH]2)c(OC(C)C)c1 | 212 to 213
62 | Cc1nc[nH]c1CSCCNc1cc[nH]c(=O)n1 | 249 to 251
63 | CCc1c(C(=O)OC)ncc2[nH]c3cc(OC)c(OC)cc3c12 | 207 to 209
64 | CNC(=O)c1cc(-c2ccc(OC)c(F)c2)nn(CC(C)C)c1=O | 153 to 155
65 | COC(=O)C1=C(C)NC(C)=C(C(=O)OCCN2CCC(c3ccccc3)CC2)C1c1cccc([N+](=O)[O-])c1 (centres undefined) | 159 to 160
66 | CCN1CCc2cc([N+](=O)[O-])ccc21 | 97 to 98
67 | CC1(C)C=C(c2cccnc2)c2cc(C#N)ccc2O1 | 98 to 99
68 | CCCn1c(=O)c2nc(C(C)Cc3ccc(OCC(=O)NCCN)cc3)[nH]c2n(CCC)c1=O (centres undefined) | 143 to 144
69 | N#Cc1cccc(C2=Nc3ccc(C#Cc4ccccc4F)cc3NC(=O)C2)c1 | 213 to 214
70 | CCOC(=O)c1nccn1C1Cc2c(cccc2-c2ccccc2)C1=O (centres undefined) | 185
71 | Cc1cc(C(C)(C)C)cc(C)c1[N+](=O)[O-] | 80 to 82
72 | [N-]=[N+]=NCCOc1cc(Cl)cc([N+](=O)[O-])c1N | 113 to 114
73 | COc1ccc(OC)c(-c2ccc(C)cc2)c1 | 65 to 66
74 | COc1ccc(C(=O)c2cccs2)c2occ(C)c12 | 131 to 134
75 | Cn1nc(C(F)(F)F)n(-c2ccc(C#Cc3ccccc3)cc2Cl)c1=S | 50 to 53
76 | O=C1CC(c2cccc(-n3ccnc3)c2)=Nc2cc(N3CCC(O)CC3)c(-c3ccc(F)cc3)cc2N1 | 238 to 240
77 | CC(C)Oc1ccc(CCCOc2nn(C)cc2CC(=O)O)c(OCc2ccc(Cl)cc2Cl)c1 | 102 to 103
78 | CCCCCN1C(=O)C(CCC(=O)OC)(NC(=O)C2CCc3ccccc3C2)c2ccccc21 (centres undefined) | 172 to 179
79 | CC(=O)NC(C)Cn1cc(-c2ccccc2)c2ccccc2c1=O (centres undefined) | 177

Row | SMILES | melting point [°C]
80 | CCOC(=O)c1cnc(SC)nc1NC | 91 to 93
81 | COc1ccc(C(=O)Nc2ccccc2)cc1NCc1ccc(O)cc1 | 188 to 190
82 | CN(C(=O)Cn1c(-c2ccc(C(F)(F)F)cc2)nc2cccnc21)c1ccccc1 | 158 to 159
83 | CC(=O)NCCCCCC1CCSS1 (centres undefined) | 28 to 33
84 | CCOCc1nc2c(N)nc3ccccc3c2n1CC1CCN(C)C(=O)O1 (centres undefined) | 192 to 194
85 | O=C(C=Cc1cccs1)Nc1nnn[nH]1 | 287
86 | Cc1c(NC(=O)c2ccc(OCc3ccccc3)cc2)ccc2cc(CN3CCCC3)cnc12 | 177 to 178
87 | CC(Cc1ccc(OCCNC(=O)c2ccc(-c3ccccn3)cc2)cc1)(Oc1ccccc1)C(=O)O (centres undefined) | 76 to 79
88 | CN1C(=O)[C@H](NC(=O)CCc2ccc(C(F)(F)F)cc2)N=C(c2ccccc2)c2ccccc21 | 175 to 176
89 | CC1(C)OC(c2ccc(S(N)(=O)=O)cc2)=C(I)C1=O | 179 to 180
90 | O=C(O)CCCCCOc1ccc(C2OC3C(CO)OC(n4cnc5c(Cl)ncnc54)C3O2)cc1 (centres undefined) | 127 to 129
91 | CCCc1c(Br)sc2[nH]c(=O)c(=O)[nH]c12 | 269 to 271
92 | O=C(Nc1cc(Cl)c([N+](=O)[O-])cc1O)c1ccc(Cl)c(Cl)c1 | 263 to 265
93 | COc1ccc(NC(=O)Nc2cccc(C(F)(F)F)c2)c(O)n1 | 223 to 224
94 | Cn1nc(-c2cc(S)c(Cl)cc2F)c(Cl)c1C(F)(F)F | 56 to 58
95 | COc1ccc(C(C#N)N2C(=O)c3cccc(NC(C)=O)c3C2=O)cc1OC1CCCC1 (centres undefined) | 124 to 126
96 | Cc1ccc(-c2ccc(-c3nnn(CCCCCCc4cccnc4)n3)cc2)cc1C | 63 to 64
97 | CC1CN(C)CCC1Oc1cccc(NC(=O)c2ccc(F)cc2Cl)n1 (centres undefined) | 155 to 160
98 | CN(C)CC=Cc1ccc2c(c1)CCN2C(=O)c1ccc(-c2ccccc2)cc1 | 174 to 176
99 | O=[N+]([O-])c1cccnc1NCc1ccccn1 | 114
